Laboratory results as given in the supplement of paper PMC11061612.

Tests used:
Assay in all cases: combination Emax (second highest fraction inhibited in the dose matrix, 72 h); higher = more inhibition; extreme values may be limits of the assay
[1] = tested on: WSU-NHL (B-Cell Non-Hodgkin's Lymphoma)
In short: (§1)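 Bliss excess equals the observed combination effect minus the expected value EA + EB − EA·EB, where EA and EB are the effects of each agent alone. Combination Emax is the second-highest inhibition within the matrix. Inhibition was scaled from CellTiter-Glo 2.0 luminescence, with 0 set by vehicle wells and 1 by blank wells, after 72 hours of two-drug dosing of cells plated in 1536-well plates.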

[2] = tested on: ESS-1 (Other Solid Carcinomas)
In short: as §1

[3] = tested on: EW-11 (Ewing's Sarcoma)
In short: as §1

[4] = tested on: SW1573 (Lung Adenocarcinoma)
In short: as §1

[5] = tested on: OV-56 (Ovarian Carcinoma)
In short: as §1

[6] = tested on: HH (T-Cell Non-Hodgkin's Lymphoma)
In short: as §1

[7] = tested on: SAS (Oral Cavity Carcinoma)
In short: as §1

[8] = tested on: BE2-M17 (Neuroblastoma)
In short: as §1

[9] = tested on: SNU-449 (Hepatocellular Carcinoma)
In short: as §1

[10] = tested on: TGBC1TKB (Biliary Tract Carcinoma)
In short: as §1

[11] = tested on: SNU-16 (Gastric Carcinoma)
In short: as §1

[12] = tested on: CAL-33 (Oral Cavity Carcinoma)
In short: as §1

[13] = tested on: LNZTA3WT4 (Low Grade Glioma)
In short: as §1

[14] = tested on: BFTC-909 (Kidney Carcinoma)
In short: as §1

[15] = tested on: HeLa (Cervical Carcinoma)
In short: as §1

[16] = tested on: NCI-H524 (Small Cell Lung Carcinoma)
In short: as §1

[17] = tested on: CAL-72 (Osteosarcoma)
In short: as §1

[18] = tested on: Hs-746T (Gastric Carcinoma)
In short: as §1

[19] = tested on: SW1710 (Bladder Carcinoma)
In short: as §1

[20] = tested on: OE21 (Esophageal Squamous Cell Carcinoma)
In short: as §1

| SMILES | combination Emax [1] | combination Emax [2] | combination Emax [3] | combination Emax [4] | combination Emax [5] | combination Emax [6] | combination Emax [7] | combination Emax [8] | combination Emax [9] | combination Emax [10] | combination Emax [11] | combination Emax [12] | combination Emax [13] | combination Emax [14] | combination Emax [15] | combination Emax [16] | combination Emax [17] | combination Emax [18] | combination Emax [19] | combination Emax [20] |
| --- | --- | --- | --- | --- | --- | --- | --- | --- | --- | --- | --- | --- | --- | --- | --- | --- | --- | --- | --- | --- |
| COc1cccc2c1C(=O)c1c(O)c3c(c(O)c1C2=O)C[C@@](O)(C(=O)CO)C[C@@H]3O[C@H]1C[C@H](N)[C@H](O)[C@H](C)O1 [Doxorubicin] + Cc1cc2ncnn2cc1Nc1ncc2c(n1)n(C1CCOCC1)c(=O)n2C [AZD7648] (first compound max 1 µM, 7x7, partner max 10 µM) | 1 | 1 | 0.893 | 0.533 | 0.711 | 0.297 | 0.921 | 0.862 | 0.173 | 0.366 | 0.97 | 0.873 | 0.647 | 0.853 | 0.499 | 0.693 | 0.663 | 0.737 | 0.665 | 0.593 |
| CC1(C)CCC(CN2CCN(c3ccc(C(=O)NS(=O)(=O)c4ccc(NCC5CCOCC5)c([N+](=O)[O-])c4)c(Oc4cnc5[nH]ccc5c4)c3)CC2)=C(c2ccc(Cl)cc2)C1 [Venetoclax] + C[C@@H]1COCCN1C2=NC(=NC(=C2)C3(CC3)[S@](=N)(=O)C)C4=C5C=CNC5=NC=C4 [AZD6738] (first compound max 1 µM, 7x7, partner max 10 µM) | 0.983 | 0.979 | 0.781 | 0.351 | 0.566 | 0.352 | 0.834 | 0.939 | 0.26 | 0.46 | 0.973 | 0.862 | 0.789 | 0.853 | 0.563 | 0.748 | 0.902 | 0.508 | 0.516 | 0.828 |
| COc1cccc(OCCCN)c1-c1cc(Nc2cnc(C#N)cn2)n[nH]1 [Prexasertib] + CCc1c2c(nc3ccc(O)cc13)-c1cc3c(c(=O)n1C2)COC(=O)[C@]3(O)CC [SN-38] (first compound max 1 µM, 7x7, partner max 0.3 µM) | 1 | 1 | 0.749 | 0.925 | 0.996 | 0.829 | 0.999 | 0.999 | 0.531 | 0.632 | 1 | 0.957 | 0.949 | 0.996 | 0.865 | 1 | 0.949 | 0.813 | 0.86 | 0.813 |
| C=CCn1c(=O)c2cnc(Nc3ccc(N4CCN(C)CC4)cc3)nc2n1-c1cccc(C(C)(C)O)n1 [AZD1775] + C[C@@H]1COCCN1C2=NC(=NC(=C2)C3(CC3)[S@](=N)(=O)C)C4=C5C=CNC5=NC=C4 [AZD6738] (first compound max 1 µM, partner max 10 µM) | 1 | 1 | 0.72 | 0.476 | 0.849 | 0.583 | 0.908 | 0.957 | 0.409 | 0.502 | 0.989 | 0.935 | 0.9 | 0.906 | 0.948 | 0.97 | 0.93 | 0.691 | 0.713 | 0.746 |
| COc1cccc(OCCCN)c1-c1cc(Nc2cnc(C#N)cn2)n[nH]1 [Prexasertib] + C=CCn1c(=O)c2cnc(Nc3ccc(N4CCN(C)CC4)cc3)nc2n1-c1cccc(C(C)(C)O)n1 [AZD1775] (first compound max 1 µM, partner max 1 µM) | 1 | 1 | 0.683 | 0.582 | 0.921 | 0.742 | 0.969 | 0.998 | 0.439 | 0.446 | 1 | 0.916 | 0.91 | 0.977 | 0.91 | 1 | 0.891 | 0.78 | 0.823 | 0.733 |
| Cn1cnc2c(F)c(Nc3ccc(Br)cc3Cl)c(C(=O)NOCCO)cc21 [Selumetinib] + CC(C)n1c(=O)n(C)c2cnc3cc(F)c(-c4ccc(OCCCN5CCCCC5)nc4)cc3c21 [AZD1390] (first compound max 10 µM, 7x7, partner max 0.3 µM) | 0.205 | 0.246 | 0.103 | 0 | 0.133 | 0.198 | 0.408 | 0.508 | 0.16 | 0.152 | 0.36 | 0.755 | 0.226 | 0.184 | 0.0672 | 0.0936 | 0.165 | 0.411 | 0.196 | 0.386 |
| CC(=O)c1c(C)c2cnc(Nc3ccc(N4CCNCC4)cn3)nc2n(C2CCCC2)c1=O [Palbociclib] + CC1(C)CCC(CN2CCN(c3ccc(C(=O)NS(=O)(=O)c4ccc(NCC5CCOCC5)c([N+](=O)[O-])c4)c(Oc4cnc5[nH]ccc5c4)c3)CC2)=C(c2ccc(Cl)cc2)C1 [Venetoclax] (first compound max 10 µM, 7x7, partner max 1 µM) | 0.92 | 0.294 | 0.203 | 0.204 | 0.117 | 0.343 | 0.47 | 0.386 | 0.272 | 0.033 | 0.699 | 0.113 | 0.307 | 0.326 | 0.0741 | 0.685 | 0.345 | 0.24 | 0.246 | 0.229 |
| CN(CCO)CC[C@H](CSc1ccccc1)Nc1ccc(S(=O)(=O)NC(=O)c2ccc(N3CCC([C@@H](O)c4ccccc4-c4ccc(Cl)cc4)CC3)cc2)cc1S(=O)(=O)C(F)(F)F [AZD4320] + C[C@@H](Nc1cc(F)cc(F)c1)c1cc(C(=O)N(C)C)cc2c(=O)cc(N3CCOCC3)oc12 [AZD8186] (first compound max 1 µM, 7x7, partner max 3 µM) | 1 | 0.825 | 0.938 | 0.577 | 0.277 | 0.455 | 0.77 | 0.722 | 0.313 | 0.802 | 0.658 | 0.714 | 0.247 | 0.595 | 0.359 | 0.892 | 0.487 | 0.677 | 0.373 | 0.216 |
| Cc1c2c(nn1C)CSCc1cc(n(C)n1)CSc1cc(c3ccccc3c1)OCCCc1c(C(=O)O)n(C)c3c-2c(Cl)ccc13 [AZD5991] + CC1(C)CCC(CN2CCN(c3ccc(C(=O)NS(=O)(=O)c4ccc(NCC5CCOCC5)c([N+](=O)[O-])c4)c(Oc4cnc5[nH]ccc5c4)c3)CC2)=C(c2ccc(Cl)cc2)C1 [Venetoclax] (first compound max 1 µM, 7x7, partner max 1 µM) | 0.975 | 0.39 | 0.975 | 0.177 | 0.173 | 0.858 | 0.184 | 0.915 | 0.23 | 0.161 | 0.994 | – | 0.203 | 0.239 | 0.794 | 0.629 | 0.423 | 0.203 | 0.168 | 0.454 |
| CN(C)CCCOc1ccc(-c2ccc3ncc4c(c3c2)n(C2CCOCC2)c(=O)n4C)cn1 [AZD0156] + C=CCn1c(=O)c2cnc(Nc3ccc(N4CCN(C)CC4)cc3)nc2n1-c1cccc(C(C)(C)O)n1 [AZD1775] (first compound max 1 µM, partner max 1 µM) | 0.948 | 0.973 | 0.486 | 0.268 | 0.19 | 0.442 | 0.548 | 0.57 | 0.142 | 0.134 | 0.919 | 0.643 | 0.783 | 0.67 | 0.498 | 0.792 | 0.778 | 0.491 | 0.337 | 0.567 |
| C=CCn1c(=O)c2cnc(Nc3ccc(N4CCN(C)CC4)cc3)nc2n1-c1cccc(C(C)(C)O)n1 [AZD1775] + C1CN(CCC1(C(=O)N[C@@H](CCO)C2=CC=C(C=C2)Cl)N)C3=NC=NC4=C3C=CN4 [Capivasertib] (first compound max 3 µM, partner max 3 µM) | 1 | 0.949 | 0.69 | 0.572 | 0.389 | 0.567 | 0.798 | 0.906 | 0.271 | 0.434 | – | 0.929 | 0.804 | 0.922 | 0.877 | 0.847 | 0.845 | 0.772 | 0.475 | 0.747 |
| CCc1c2c(nc3ccc(O)cc13)-c1cc3c(c(=O)n1C2)COC(=O)[C@]3(O)CC [SN-38] + O=C(c1cc(Cc2n[nH]c(=O)c3ccccc23)ccc1F)N1CCN(C(=O)C2CC2)CC1 [Olaparib] (first compound max 0.3 µM, 7x7, partner max 10 µM) | 1 | 1 | 0.742 | – | – | 0.103 | 1 | 0.89 | 0.175 | 0.493 | 0.848 | 0.962 | 0.464 | 0.931 | 0.397 | 0.783 | 0.708 | – | 0.327 | 0.669 |
| CN(C)CCCOc1ccc(-c2ccc3ncc4c(c3c2)n(C2CCOCC2)c(=O)n4C)cn1 [AZD0156] + O=C(c1cc(Cc2n[nH]c(=O)c3ccccc23)ccc1F)N1CCN(C(=O)C2CC2)CC1 [Olaparib] (first compound max 3 µM, partner max 3 µM) | 0.879 | 0.489 | 0.539 | 0.162 | 0.0996 | 0.038 | 0.212 | 0.331 | 0.0695 | 0.157 | – | 0.352 | 0.206 | 0.527 | 0.131 | 0.496 | 0.416 | 0.378 | 0.0777 | 0.283 |
